In data set [1] the test system is HEK-293 (human embryonic kidney cells). The experiment in a line: In vitro cytotoxicity, MTT assay, HEK-293 normal cells. The class given is cell-based. To be noted: HEK293; MTT, 48 h, human normal cell line; read-out: IC50 HEK-293. The method, then: (§1) The resultant compounds were tested for their in vitro cytotoxic activity by MTT assay against breast (MCF-7), cervical (SiHa), and prostate (PC-3) cancer cell lines, and the human embryonic kidney cell line (HEK). […] Subsequently, SAR studies were done by investigating the effect of substituents on cytotoxic activity.
(§2) Human cervical cancer cell line SiHa, human breast cancer cell line MCF-7, human prostate cancer cell line PC-3, and human embryonic kidney HEK-293 cells were procured from the National Centre for Cell Sciences (NCCS) Pune, India. In this experiment, antibiotics (100 units/mL penicillin and 100 mg L^−1 streptomycin were grown as a monolayer culture in Dulbecco’s modified Eagle’s medium containing 10% fetal bovine serum) were cultured in a humidified atmosphere of 5% CO2 at 37 °C in T-75 flasks and subcultured twice a week.
(§3) The cytotoxic effects of the selected compounds were evaluated by MTT assay on the above-mentioned cell lines. Initially, 2 × 10^4 cells/well were seeded into 96-well plates (150 µL/well) in triplicates and allowed to grow. The cells were incubated for 24 h and subsequently treated with varying concentrations of the compounds. After 48 h, the cells were incubated with 20 μL of MTT (5 mg/mL in PBS) in a fresh medium for 4 h at 37 °C. MTT is a metabolic substrate that is reduced to give formazan crystals, which were solubilized in DMSO (150 µL/well) and analyzed by reading the absorbance at 540 nm after 15 min of the incubation period on the iMark Microplate Reader (Bio-Rad). Percentage viability and IC50 values were used to determine the relative absorbance of treated versus control (untreated) cells.
In general terms: Formazan colour is commonly taken as a measure of viable cells.

Data set [2] has as its system SiHa (cervical cancer cell line). The experiment in a line: In vitro cytotoxicity, MTT assay, SiHa. The class given is cell-based. To be noted: Homo sapiens, MTT, 48 h, cervical cancer, read-out: IC50 SiHa. How it is done:
as §1, §2, §3

Data set [3] has as its target tubulin (purified brain tubulin) (Sus scrofa, UniProt P02550+P02554). Put plainly: In vitro tubulin polymerization assay (fluorescence). In kind it is biochemical. As to conditions: read-out: % Inhibition of Tubulin Polymerization at 10 µM. The method, then: The α and β tubulin subunits are recognized by heterodimers and self-assemble into a stable microtubule in a time-dependent manner. Assessment of the inhibitory effect of new pyrazolic chalcone conjugates on tubulin polymerization was also carried out. The progression of tubulin polymerization was thus examined by monitoring the increase in the fluorescence intensity at 450 nm (excitation wavelength of 360 nm) in a 384-plate for 1 h at 37 °C with and without the conjugate at 10 µM concentration. CA-4 (6 µM) and Vincristine (3 µM) were used as the positive control, whereas paclitaxel (3 µM) was used as the negative control.
Tubulin polymerization is a dynamic process by enhancement of fluorescence intensity due to the combination of a fluorescent reporter into the microtubules as polymerization occurs. Tubulin polymerization was performed by using a purified brain tubulin polymerization kit purchased from Cytoskeleton (BK110P, Denver, CO, USA). The tubulin polymerization assay was monitored by the increase in fluorescence over a 60 min period at 37 °C, with excitation at 360 nm and emission at 450 nm. The final buffer concentration for tubulin polymerization contained 80 mM PIPES, pH 6.9; 2 mM MgCl2; 0.5 mM EGTA; […]; and 15% glycerol. Firstly, 5 µL of the test compounds (final concentration of 10 µM) was added and then warmed to 37 °C for 1 min. The reaction was initiated by adding 50 µL of the tubulin reaction mix as specified for 6 min.

Data set [4] concerns MCF-7 (breast cancer cell line). The experiment in a line: In vitro cytotoxicity, MTT assay, MCF-7. The class given is cell-based, human. To be noted: Homo sapiens, MCF7; MTT, 48 h, breast cancer; read-out: IC50 MCF-7. The method, then:
as §1, §2, §3

Data set [5] deals with PC-3 (prostate cancer cell line). The experiment in a line: In vitro cytotoxicity, MTT assay, PC-3. In kind it is cell-based. As to conditions: Homo sapiens; MTT, 48 h, prostate cancer; read-out: IC50 PC3. The method, then:
as §1, §2, §3

A word on the IC50: it is the concentration that gives 50% inhibition. What is called melting point is the temperature of the solid-liquid transition. By inhibition is commonly meant the percentage by which the read-out fell short of the control.

Where only a bound is given, the exact number is not on record here.

tubulin (purified brain tubulin), sequence (P02550 whole entry): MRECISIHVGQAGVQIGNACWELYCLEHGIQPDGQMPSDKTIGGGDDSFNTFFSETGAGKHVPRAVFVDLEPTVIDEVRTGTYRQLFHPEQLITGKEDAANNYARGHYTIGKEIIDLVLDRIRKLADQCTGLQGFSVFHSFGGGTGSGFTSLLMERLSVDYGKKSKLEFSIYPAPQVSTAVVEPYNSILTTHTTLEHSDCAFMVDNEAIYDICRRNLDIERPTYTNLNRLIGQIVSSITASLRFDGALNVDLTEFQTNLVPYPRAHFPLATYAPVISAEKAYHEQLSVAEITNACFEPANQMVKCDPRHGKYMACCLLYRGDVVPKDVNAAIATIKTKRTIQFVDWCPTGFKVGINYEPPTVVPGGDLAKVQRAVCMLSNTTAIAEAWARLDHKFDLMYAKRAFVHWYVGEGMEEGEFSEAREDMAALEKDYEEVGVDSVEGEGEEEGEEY
tubulin (purified brain tubulin), sequence (P02554 whole entry): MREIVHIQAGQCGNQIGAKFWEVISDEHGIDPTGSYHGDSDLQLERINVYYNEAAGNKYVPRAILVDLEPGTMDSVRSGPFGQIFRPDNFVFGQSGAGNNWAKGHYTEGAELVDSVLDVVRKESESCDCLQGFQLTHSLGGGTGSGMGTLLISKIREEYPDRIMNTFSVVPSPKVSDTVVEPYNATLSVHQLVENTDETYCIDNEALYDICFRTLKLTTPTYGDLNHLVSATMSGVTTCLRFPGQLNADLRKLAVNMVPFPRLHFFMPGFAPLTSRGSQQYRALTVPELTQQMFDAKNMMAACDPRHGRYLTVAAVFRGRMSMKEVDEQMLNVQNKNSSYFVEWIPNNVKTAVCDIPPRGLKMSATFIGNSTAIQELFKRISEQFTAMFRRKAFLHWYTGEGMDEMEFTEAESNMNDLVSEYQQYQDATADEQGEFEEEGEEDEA

For the compound `O=C(/C=C/c1cn(-c2ccccc2)nc1-c1ccc(OCc2ccccc2)cc1)c1ccc(Cl)c(Cl)c1` [Compound 5l, (E)-3-(3-(4-(benzyloxy)phenyl)-1-phenyl-1H-pyrazol-4-yl)-1-(3,4-dichlorophenyl)prop-2-en-1-one], the melting point was 243 to 245 °C. Besides, the IC50 in data set [1] was > 50 µM. For the same compound, in data set [2], the IC50 was found to be 11.7 ± 2.83 µM. In data set [3], the inhibition at 10 µM amounted to 55.2%. Also, the IC50 in data set [4] is 8.23 ± 1.45 µM. Moreover, the IC50 in data set [5] was found to be 5.84 ± 1.65 µM.

On to `O=C(/C=C/c1cn(-c2ccccc2)nc1-c1ccc(OCc2ccccc2)cc1)c1ccc(O)cc1O` [Compound 5n, (E)-3-(3-(4-(benzyloxy)phenyl)-1-phenyl-1H-pyrazol-4-yl)-1-(2,4-dihydroxyphenyl)prop-2-en-1-one], for which the melting point was 176 to 178 °C. In addition, the IC50 in data set [1] was > 50 µM. The half-inhibitory concentration (IC50) in data set [2] worked out at 3.6 ± 0.45 µM. Besides, the inhibition at 10 µM in data set [3] amounted to 47.6%. The IC50 in data set [4] was determined as 6.98 ± 1.12 µM. Further, the half-maximal inhibitory concentration (IC50) in data set [5] was 3.56 ± 0.63 µM.
